Experimental data as given in patent US11008346B2, “Beta-lactamase inhibitors” (priority 2014, dated 2021).
Where two headings read alike, the source gives them in different places.

What was measured:
[1] = test system: E. cloacae 144200 expressing Class C P99 AmpC; experiment: broth microdilution MIC, E. cloacae P99; assay type: cell-based; conditions: Fixed CAZ (ceftazidime) 4 μg/mL
Procedure, shortened: (§1)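 CAMHB; strains pre-grown 3-5 h. Test cpd 2-fold dilutions, 32→0.25 μg/mL final, + beta-lactam static 4 μg/mL. CLSI inoculation, 16-20 h at 37° C, visual MIC.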

[2] = test system: E. coli ESBL4 expressing CTX-M-15; experiment: broth microdilution MIC, E. coli CTX-M-15; assay type: cell-based; conditions: Fixed CAZ (ceftazidime) 4 μg/mL
Procedure, shortened: as §1

[3] = test system: K. pneumoniae A-1797 expressing KPC-2 and VIM-4; experiment: broth microdilution MIC, K. pneumoniae KPC-2 and VIM-4; assay type: cell-based; conditions: Fixed Mero (meropenem) 4 μg/mL
Procedure, shortened: as §1

p99 AmpC β-lactamase = target: T1, p99 AmpC β-lactamase (Enterobacter cloacae, UniProt P05364); experiment: β-lactamase enzyme inhibition, p99 AmpC; assay type: biochemical
T1 construct: made in house; host or cells: E. coli BL21(DE3)
Procedure, shortened: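 Native untagged E. cloacae p99 AmpC was expressed in E. coli BL21(DE3) and purified by cation exchange and gel filtration. Enzyme was preincubated with inhibitor at 37°C for 15 min.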

[4] = target: T2, VIM-2 metallo β-lactamase (Pseudomonas aeruginosa, UniProt Q9K2N0); experiment: β-lactamase enzyme inhibition, VIM-2; assay type: biochemical; conditions: Nitrocefin 100 μM, 486 nm; 15 min at 37° C. preincubation; read-out: IC50 VIM-2 (Class B)
T2 construct: made in house; host or cells: E. coli BL21(DE3)
Procedure, shortened: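 VIM-2 purified by Q sepharose anion exchange (50 mM Hepes pH 7.5, 0-600 mM NaCl gradient, two runs, >90% purity). Enzyme preincubated with inhibitor 15 min at 37° C; nitrocefin 100 μM final, absorbance at 486 nm followed 10 min. IC50 from initial hydrolysis rates versus inhibitor-free controls.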

SHV-5 β-lactamase = target: T3, SHV-5 β-lactamase (Klebsiella pneumoniae, UniProt P0A3M1); experiment: β-lactamase enzyme inhibition, SHV-5; assay type: biochemical
T3 construct: made in house; host or cells: E. coli BL21(DE3)
Procedure, shortened: (§2)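 Native untagged β-lactamases were expressed in E. coli BL21(DE3) and purified. Enzyme was preincubated with inhibitor for 15 min at 37° C., then substrate hydrolysis was followed: nitrocefin 100 μM for p99 AmpC and OXA-1 (486 nm, 10 min), imipenem for KPC-2 (300 nm), cefotaxime for SHV-5 (260 nm). IC50 was derived from initial rates relative to uninhibited controls.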

[5] = test system: K. pneumoniae 156319 expressing KPC-3; experiment: broth microdilution MIC, K. pneumoniae KPC-3; assay type: cell-based; conditions: Fixed Mero (meropenem) 4 μg/mL
Procedure, shortened: as §1

[6] = test system: S. aureus MSSA-7 producing penicillinase PC-1; experiment: broth microdilution MIC, S. aureus PC-1; assay type: cell-based; conditions: Fixed Pip (piperacillin) 4 μg/mL
Procedure, shortened: as §1

[7] = test system: P. aeruginosa Ps296 expressing VIM-2; experiment: broth microdilution MIC, P. aeruginosa VIM-2; assay type: cell-based; conditions: Fixed Mero (meropenem) 4 μg/mL
Procedure, shortened: as §1

KPC-2 β-lactamase = target: T4, KPC-2 β-lactamase (Klebsiella pneumoniae, UniProt Q9F663); experiment: β-lactamase enzyme inhibition, KPC-2; assay type: biochemical
T4 construct: made in house; host or cells: E. coli BL21(DE3)
Procedure, shortened: as §2

OXA-1 β-lactamase = target: T5, OXA-1 β-lactamase (Escherichia coli, UniProt P13661); experiment: β-lactamase enzyme inhibition, OXA-1; assay type: biochemical; conditions: Nitrocefin 100 μM, 486 nm; 15 min at 37° C. preincubation; read-out: IC50 OXA-1 (Class D)
T5 construct: made in house; host or cells: E. coli BL21(DE3)
Procedure, shortened: as §2

[8] = imipenem substrate, 300 nm, 15 min at 37° C. preincubation, read-out: IC50 KPC-2 (Class A)

T1 sequence (P05364 21-381): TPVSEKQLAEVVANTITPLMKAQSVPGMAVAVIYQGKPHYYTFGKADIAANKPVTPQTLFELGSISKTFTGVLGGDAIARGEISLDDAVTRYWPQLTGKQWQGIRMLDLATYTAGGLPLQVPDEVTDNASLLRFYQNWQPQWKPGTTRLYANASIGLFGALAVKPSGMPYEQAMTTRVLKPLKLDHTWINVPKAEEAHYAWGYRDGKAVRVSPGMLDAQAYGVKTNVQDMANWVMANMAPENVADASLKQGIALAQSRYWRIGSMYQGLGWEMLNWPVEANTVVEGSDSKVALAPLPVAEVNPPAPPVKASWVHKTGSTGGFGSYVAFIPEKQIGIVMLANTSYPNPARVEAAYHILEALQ
T4 sequence (Q9F663 25-293, looked up): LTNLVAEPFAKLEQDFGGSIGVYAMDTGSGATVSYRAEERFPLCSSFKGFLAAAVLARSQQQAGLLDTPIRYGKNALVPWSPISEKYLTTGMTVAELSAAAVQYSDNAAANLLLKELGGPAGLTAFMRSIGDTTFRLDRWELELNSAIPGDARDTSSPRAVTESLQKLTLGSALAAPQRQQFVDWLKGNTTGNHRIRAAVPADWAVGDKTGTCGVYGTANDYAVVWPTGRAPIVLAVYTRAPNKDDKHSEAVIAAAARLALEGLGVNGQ
T5 sequence (P13661 26-276): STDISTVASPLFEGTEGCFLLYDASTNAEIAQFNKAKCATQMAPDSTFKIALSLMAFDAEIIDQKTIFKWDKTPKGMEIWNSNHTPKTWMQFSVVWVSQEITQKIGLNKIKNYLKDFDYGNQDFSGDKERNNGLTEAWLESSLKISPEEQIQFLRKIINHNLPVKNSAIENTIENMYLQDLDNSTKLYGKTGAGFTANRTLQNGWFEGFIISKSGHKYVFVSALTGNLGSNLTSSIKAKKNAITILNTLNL
T3 sequence (P0A3M1 22-286): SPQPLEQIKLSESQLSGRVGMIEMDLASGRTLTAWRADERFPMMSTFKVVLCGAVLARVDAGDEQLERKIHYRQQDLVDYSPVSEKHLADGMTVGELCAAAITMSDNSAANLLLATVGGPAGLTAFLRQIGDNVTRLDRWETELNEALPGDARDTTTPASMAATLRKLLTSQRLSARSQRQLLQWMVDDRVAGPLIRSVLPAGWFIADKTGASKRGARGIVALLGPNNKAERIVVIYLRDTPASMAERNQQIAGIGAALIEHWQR

SMILES | MIC of exemplary compounds in presence of fixed β-lactams, E. cl. 144200 p99 AmpC [1] | MIC of exemplary compounds in presence of fixed β-lactams, E. coli ESBL4 CTX-M-15 [2] | MIC of exemplary compounds in presence of fixed β-lactams, K.P. A-1797 KPC-2 VIM-4 [3] | IC50 (p99 AmpC β-lactamase) [nM] | IC50 [4] [nM] | IC50 (SHV-5 β-lactamase) [nM] | MIC of exemplary compounds in presence of fixed β-lactams, K.P. 156319 KPC-3 [5] | MIC of exemplary compounds in presence of fixed β-lactams, S. aureus MSSA-7 PC-1 [6] | MIC of exemplary compounds in presence of fixed β-lactams, P. aerug. Ps296 VIM-2 [7] | IC50 (KPC-2 β-lactamase; [8]) [nM] | IC50 (OXA-1 β-lactamase) [nM] | IC50 (KPC-2 β-lactamase) [nM]
COCCOCC(=O)N[C@H]1Cc2cccc(C(=O)O)c2OB1O [Example 27, (R)-2-Hydroxy-3-[2-(2-methoxy-ethoxy)-acetylamino]-3,4-dihydro-2H-benzo[e][1,2]oxaborinine-8-carboxylic acid] | C (C represents the MIC in the presence of ≤4 g/mL of a β-lactamase inhibitor) | C (C represents the MIC in the presence of ≤4 g/mL of a β-lactamase inhibitor) | B (B represents the MIC in the presence of between 8 and 32 g/mL of a β-lactamase inhibitor) | < 100 | 100 to 1000 | < 100 | C (C represents the MIC in the presence of ≤4 g/mL of a β-lactamase inhibitor) | C (C represents the MIC in the presence of ≤4 g/mL of a β-lactamase inhibitor) | A (A represents an MIC of the fixed β-lactam antibiotic in the presence of >32 g/mL of a β-lactamase inhibitor) | < 100 | < 100 | 
CC(Cl)(Cl)C(=O)N[C@H]1Cc2cccc(C(=O)O)c2OB1O [Example 11, (R)-3-(2,2-Dichloro-propionylamino)-2-hydroxy-3,4-dihydro-2H-benzo[e][1,2]oxaborinine-8-carboxylic acid] | C (C represents the MIC in the presence of ≤4 g/mL of a β-lactamase inhibitor) | C (C represents the MIC in the presence of ≤4 g/mL of a β-lactamase inhibitor) | A (A represents an MIC of the fixed β-lactam antibiotic in the presence of >32 g/mL of a β-lactamase inhibitor) | < 100 | 1000 to 10000 | < 100 | C (C represents the MIC in the presence of ≤4 g/mL of a β-lactamase inhibitor) | C (C represents the MIC in the presence of ≤4 g/mL of a β-lactamase inhibitor) | B (B represents the MIC in the presence of between 8 and 32 g/mL of a β-lactamase inhibitor) | < 100 | < 100 | 
CC(CCC(=O)N[C@H]1Cc2cccc(C(=O)O)c2OB1O)=NO [Example 17, (R)-2-Hydroxy-3-(4-hydroxyimino-pentanoylamino)-3,4-dihydro-2H-benzo[e][1,2]oxaborinine-8-carboxylic acid] | C (C represents the MIC in the presence of ≤4 g/mL of a β-lactamase inhibitor) | C (C represents the MIC in the presence of ≤4 g/mL of a β-lactamase inhibitor) | B (B represents the MIC in the presence of between 8 and 32 g/mL of a β-lactamase inhibitor) | < 100 | 1000 to 10000 | < 100 | B (B represents the MIC in the presence of between 8 and 32 g/mL of a β-lactamase inhibitor) | C (C represents the MIC in the presence of ≤4 g/mL of a β-lactamase inhibitor) | C (C represents the MIC in the presence of ≤4 g/mL of a β-lactamase inhibitor) | < 100 | < 100 | 
CS(=O)(=O)NCCC(=O)N[C@H]1Cc2cccc(C(=O)O)c2OB1O [Example 22, (R)-2-Hydroxy-3-(3-methanesulfonylamino-propionylamino)-3,4-dihydro-2H-benzo[e][1,2]oxaborinine-8-carboxylic acid] | C (C represents the MIC in the presence of ≤4 g/mL of a β-lactamase inhibitor) | C (C represents the MIC in the presence of ≤4 g/mL of a β-lactamase inhibitor) | B (B represents the MIC in the presence of between 8 and 32 g/mL of a β-lactamase inhibitor) | < 100 | 1000 to 10000 | < 100 | C (C represents the MIC in the presence of ≤4 g/mL of a β-lactamase inhibitor) | C (C represents the MIC in the presence of ≤4 g/mL of a β-lactamase inhibitor) | B (B represents the MIC in the presence of between 8 and 32 g/mL of a β-lactamase inhibitor) |  | < 100 | < 100
